From patent publication US20140051756A1, “METHOD FOR PREVENTING OR TREATING ARRHYTHMIA, METHOD FOR PREVENTING OR TREATING ATRIAL FIBRILLATION, MODEL OF SUSTAINED ATRIAL FIBRILLATION, METHOD FOR PRODUCING THE MODEL, AND METHOD FOR SCREENING FOR ATRIAL FIBRILLATION INHIBITOR” (Toho University, priority 2011, published 2014)
Like-named read-outs stand apart in the source and are kept apart here. Each block holds one compound with its values, some of them ahead of it.

Columns and labels:
[1] = system: model of sustained atrial fibrillation; experiment: Test Example 1: screening for atrial fibrillation inhibitor, intravenous injection, Holter electrocardiogram; conditions: for Frequency of Atrial Fibrillation Termination: X/Y individuals terminated
normal beagle dogs [2] = conditions: dog, in vivo, iv
[3] = system: model of sustained atrial fibrillation; experiment: Test Example 2: study of dose and combined use of oseltamivir, with 24 hour follow-up for recurrence; type: in vivo, beagle dog; conditions: for Frequency of Atrial Fibrillation Recurrence: 24 hours follow-up after termination
Description: Oseltamivir (oseltamivir phosphate, trade name: TAMIFLU (registered trademark), product of CHUGAI PHARMACEUTICAL CO., LTD.; phosphate of the compound represented by Structural Formula (I))) and/or pilsicainide (pilsicainide hydrochloride, trade name: […] (registered trademark), product of DAIICHI SANKYO COMPANY, LIMITED), which had been diluted with saline to doses as described in Table 2-1, was intravenously injected to the model of sustained atrial fibrillation produced in Production Example 1 in doses described in Table 2-1 for 10 min.
During from before the administration to after the administration, the electrocardiogram was monitored in the same manner as in Test Example 1, and the frequency of atrial fibrillation termination and the defibrillation rate were determined in the same manner as in Test Example 1. For individuals in which atrial fibrillation was terminated, an electrocardiographic follow-up was performed for 24 hours after atrial fibrillation was terminated to thereby determine whether atrial fibrillation recurred.

normal beagle dogs [4] = experiment: Test Example 3: study of effect on QT prolongation (ECG, MAP90, ERP)
[5] = 3 mg/kg intravenous over 10 min
[6] = 30 mg/kg intravenous over 10 min
[7] = high dose 30 mg/kg intravenous over 10 min
[8] = low dose 3 mg/kg intravenous over 10 min

Compound: CC(C)N(CCC(C(N)=O)(c1ccccc1)c1ccccn1)C(C)C (centres unmarked) [Disopyramide, disopyramide]
Frequency of Atrial Fibrillation Termination [1, 5]: 1/6 | death of the model animal after administration ([1]; 3 mg/kg intravenous, 1 individual, FIG. 6A): confirmed to be dead | termination of atrial fibrillation on electrocardiogram ([1]; 3 mg/kg intravenous, 1 individual, FIGS. 6A to 6C): could not terminate atrial fibrillation | MAP90 (CL300) versus MAP90 (CL400), MAP prolongation pattern (normal beagle dogs [2]): dangerous MAP prolongation pattern | prolongation of QT and QTc, QT prolongation pattern (normal beagle dogs [2]): longer prolongations of QT and QTc than that of the oseltamivir-administered group, and a dangerous QT prolongation pattern

Compound: CCN(CC)CCCN(c1ccccc1)C1Cc2ccccc2C1 [Aprindine, aprindine]
Defibrillation Rate [1, 5]: 0% | Frequency of Atrial Fibrillation Termination [1, 5]: 0/6

Compound: c1ccc(C2(c3ccccc3)CC2C2=NCCN2)cc1 (centres unmarked) [Cibenzoline, cibenzoline]
Defibrillation Rate [1, 5]: 33.3% | Frequency of Atrial Fibrillation Termination [1, 5]: 2/6

Compound: CCOC(=O)C1=C[C@@H](OC(CC)CC)[C@H](NC(C)=O)[C@@H](N)C1 [Oseltamivir, oseltamivir]
Defibrillation Rate [1, 6]: 91.7% | adverse effect on the ventricle [1, 6]: does not adversely affect the ventricle | Frequency of Atrial Fibrillation Termination [1, 6]: 11/12 | Defibrillation Rate ([1]; 30 mg/kg intravenous over 10 min, listed as oseltamivir): very high | Defibrillation Rate [3, 7]: 100% | Frequency of Atrial Fibrillation Termination [3, 7]: 5/5 | Frequency of Atrial Fibrillation Recurrence [3, 7]: 2/5 | Defibrillation Rate [3, 8]: 25% | Frequency of Atrial Fibrillation Termination [3, 8]: 1/4 | Frequency of Atrial Fibrillation Recurrence [3, 8]: 0/1 | prolongation of QT and QTc, QT prolongation pattern (normal beagle dogs [4]; anesthetized normal dogs, intravenous doses increased stepwise every 30 min (Table 3), FIGS. 7 to 10): short prolongations of QT and QTc and a safe QT prolongation pattern | prolongation of P wave width on the electrocardiogram (index of inhibitory effect on Na channels in the atrial muscle) (normal beagle dogs [4]; sinus rhythm, 0.3, 3, 30 mg/kg intravenous stepwise, FIG. 7): longer prolongation of P wave | MAP90 (CL300) versus MAP90 (CL400), MAP prolongation pattern (normal beagle dogs [4]; ventricular pacing at cycle length 300 msec (200 bpm) and 400 msec (150 bpm), stepwise intravenous doses (Table 3)): safe MAP prolongation pattern

MAP90 (CL300) versus MAP90 (CL400), MAP prolongation pattern (normal beagle dogs [2]): dangerous MAP prolongation pattern
Compound: Cc1cccc(C)c1NC(=O)CC12CCCN1CCC2 [Pilsicainide, pilsicainide]
Defibrillation Rate [1, 5]: 33.3% | Frequency of Atrial Fibrillation Termination [1, 5]: 2/6 | prolongation of QT and QTc, QT prolongation pattern (normal beagle dogs [2]): longer prolongations of QT and QTc than that of the oseltamivir-administered group, and a dangerous QT prolongation pattern
